Results taken from US20090253669A1, “Substituted Sulfonamide Compounds” (GRUENENTHAL GmbH, priority 2008, published 2009).

Experiments:
[1] = target: T1, human B1R receptor (hB1R) (Homo sapiens, UniProt P46663); assay: FLIPR Ca2+ assay on hB1R-transfected CHO K1 cells, antagonistic action; assay type: cell-based; details: agonist Lys-Des-Arg9-bradykinin 0.5 nM, % of maximum achievable inhibition; for inhibition at 10 µM: CHO-K1, 10 μM test substance, read-out: hB1R [10 μM] % inhibition
T1 construct: host or cells: CHO K1 cells
T1 sequence (P46663 1-353): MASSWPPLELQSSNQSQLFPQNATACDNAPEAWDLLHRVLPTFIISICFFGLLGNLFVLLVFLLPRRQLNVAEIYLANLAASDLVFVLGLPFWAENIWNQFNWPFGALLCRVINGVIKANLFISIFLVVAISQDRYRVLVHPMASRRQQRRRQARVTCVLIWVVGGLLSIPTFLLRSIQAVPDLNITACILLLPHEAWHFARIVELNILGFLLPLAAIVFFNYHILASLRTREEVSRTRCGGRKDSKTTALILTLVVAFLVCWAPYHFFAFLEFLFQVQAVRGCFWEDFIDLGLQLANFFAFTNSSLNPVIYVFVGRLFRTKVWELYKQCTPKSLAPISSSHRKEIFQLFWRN

[2] = target: T2, B1R receptor of the rat (rB1R) (Rattus norvegicus, UniProt P97583); assay: FLIPR Ca2+ assay on rB1R-transfected CHO K1 cells, antagonistic action; assay type: cell-based; details: agonist Des-Arg9-bradykinin 100 nM, % of maximum achievable inhibition; for inhibition at 10 µM: CHO-K1, 10 μM test substance, read-out: rB1R [10 μM] % inhibition
T2 construct: host or cells: CHO K1 cells
T2 sequence (P97583 1-337): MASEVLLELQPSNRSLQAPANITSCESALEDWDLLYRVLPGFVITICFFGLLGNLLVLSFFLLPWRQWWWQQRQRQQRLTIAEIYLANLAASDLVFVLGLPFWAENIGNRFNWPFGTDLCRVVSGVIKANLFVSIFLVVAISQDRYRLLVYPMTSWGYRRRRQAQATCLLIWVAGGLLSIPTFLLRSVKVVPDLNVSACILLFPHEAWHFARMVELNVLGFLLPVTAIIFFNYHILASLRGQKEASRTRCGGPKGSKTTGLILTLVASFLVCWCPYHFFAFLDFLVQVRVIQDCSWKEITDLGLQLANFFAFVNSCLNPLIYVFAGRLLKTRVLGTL

COc1cc(C)c(S(=O)(=O)N(C)CCOCC(=O)NC2CCC(c3ccccc3)(N3CCCCC3)CC2)c(C)c1 (centres unmarked) [Compound 11, 2-(2-(4-methoxy-N,2,6-trimethylphenylsulfonamido)ethoxy)-N-(4-phenyl-4-(piperidin-1-yl)cyclohexyl)acetamide]
inhibition at 10 µM [1]: 100%
inhibition at 10 µM [2]: 90%

CN(CCCC1CCC(c2ccccc2)(N2CCCC2)CC1)C(=O)CC(NS(=O)(=O)c1ccc2ccccc2c1)c1ccccc1 (centres unmarked) [Compound 128, N-methyl-3-(naphthalene-2-sulfonamido)-3-phenyl-N-(3-(4-phenyl-4-(pyrrolidin-1-yl)cyclohexyl)propyl)propanamide]
inhibition at 10 µM [1]: 98%
inhibition at 10 µM [2]: 53%

CN1CCN(C2(Cc3ccccc3)CCN(C(=O)COCC3CCc4ccccc4N3S(=O)(=O)c3ccc(Cl)c(Cl)c3)CC2)CC1 (centres unmarked) [Compound 108, 1-(4-benzyl-4-(4-methylpiperazin-1-yl)piperidin-1-yl)-2-((1-(3,4-dichlorophenylsulfonyl)-1,2,3,4-tetrahydroquinolin-2-yl)methoxy)ethanone]
inhibition at 10 µM [1]: 60%
inhibition at 10 µM [2]: 79%

COc1cc(C)c(S(=O)(=O)N2CCCCC2COCC(=O)N(C)CC2CCC(CCc3ccccc3)(N3CCN(C)CC3)CC2)c(C)c1 (centres unmarked) [Compound 144, 2-((1-(4-methoxy-2,6-dimethylphenylsulfonyl)piperidin-2-yl)methoxy)-N-methyl-N-((4-(4-methylpiperazin-1-yl)-4-phenethylcyclohexyl)methyl)acetamide]
inhibition at 10 µM [1]: 103%
inhibition at 10 µM [2]: 111%

COc1cc(C)c(S(=O)(=O)N(C)CCOCC(=O)NC2CCC(Cc3ccccc3)(N3CCCCC3)CC2)c(C)c1 (centres unmarked) [Compound 17, N-(4-benzyl-4-(piperidin-1-yl)cyclohexyl)-2-(2-(4-methoxy-N,2,6-trimethylphenylsulfonamido)ethoxy)acetamide]
inhibition at 10 µM [1]: 86%
inhibition at 10 µM [2]: 75%

COc1cc(C)c(S(=O)(=O)N2CCCC2COCC(=O)NC2CCC(c3ccccc3)(N3CCOCC3)CC2)c(C)c1 (centres unmarked) [Compound 160, 2-((1-(4-methoxy-2,6-dimethylphenylsulfonyl)pyrrolidin-2-yl)methoxy)-N-(4-morpholino-4-phenylcyclohexyl)acetamide]
inhibition at 10 µM [1]: 93%
inhibition at 10 µM [2]: 98%

CN1CCN(C2(c3ccccc3)CCN(C(=O)CC(NS(=O)(=O)c3ccc4ccccc4c3)c3ccccc3)CC2)CC1 (centres unmarked) [Compound 82, N-(3-(4-(4-methylpiperazin-1-yl)-4-phenylpiperidin-1-yl)-3-oxo-1-phenylpropyl)naphthalene-2-sulfonamide]
inhibition at 10 µM [1]: 99%
inhibition at 10 µM [2]: 99%

COc1cc(C)c(S(=O)(=O)N2CCCC(OCC(=O)NC3CCC(c4ccccc4)(N4CCCC4)CC3)C2)c(C)c1 (centres unmarked) [Compound 176, 2-(1-(4-methoxy-2,6-dimethylphenylsulfonyl)piperidin-3-yloxy)-N-(4-phenyl-4-(pyrrolidin-1-yl)cyclohexyl)acetamide]
inhibition at 10 µM [1]: 89%
inhibition at 10 µM [2]: 77%

COc1cc(C)c(S(=O)(=O)N2CCCCC2COCC(=O)NC2CCC(Cc3ccccc3)(N3CCOCC3)CC2)c(C)c1 (centres unmarked) [Compound 155, N-(4-benzyl-4-morpholinocyclohexyl)-2-((1-(4-methoxy-2,6-dimethylphenylsulfonyl)piperidin-2-yl)methoxy)acetamide]
inhibition at 10 µM [1]: 97%
inhibition at 10 µM [2]: 100%

COc1cc(C)c(S(=O)(=O)N(C)CCOCC(=O)N2CCC(c3cccc(F)c3)(N3CCN(C)CC3)CC2)c(C)c1 [Compound 44, N-(2-(2-(4-(3-fluorophenyl)-4-(4-methylpiperazin-1-yl)piperidin-1-yl)-2-oxoethoxy)ethyl)-4-methoxy-N,2,6-trimethylbenzenesulfonamide]
hB1R [10 μM] % inhibition ([1]; 10 μM test substance): 102%
rB1R [10 μM] % inhibition ([2]; 10 μM test substance): 101%

COc1cc(C)c(S(=O)(=O)N2CCC(OCC(=O)N3CCC(c4cccc(F)c4)(N4CCN(C)CC4)CC3)C2)c(C)c1 (centres unmarked) [Compound 217, 1-(4-(3-Fluorophenyl)-4-(4-methylpiperazin-1-yl)piperidin-1-yl)-2-(1-(4-methoxy-2,6-dimethylphenylsulfonyl)pyrrolidin-3-yloxy)ethanone]
inhibition at 10 µM [1]: 100%
inhibition at 10 µM [2]: 98%

CN(C)C1(c2cccc(F)c2)CCC(NC(=O)COCCN(C)S(=O)(=O)c2ccc(Cl)cc2Cl)CC1 (centres unmarked) [Compound 21, 2-(2-(2,4-dichloro-N-methylphenylsulfonamido)ethoxy)-N-(4-(dimethylamino)-4-(3-fluorophenyl)cyclohexyl)acetamide]
inhibition at 10 µM [1]: 29%
inhibition at 10 µM [2]: 67%

COc1cc(C)c(S(=O)(=O)N2CCC(OCC(=O)NC3CCC(Cc4ccccc4)(N4CCCCC4)CC3)C2)c(C)c1 (centres unmarked) [Compound 18, N-(4-benzyl-4-(piperidin-1-yl)cyclohexyl)-2-(1-(4-methoxy-2,6-dimethylphenylsulfonyl)pyrrolidin-3-yloxy)acetamide]
inhibition at 10 µM [1]: 68%
inhibition at 10 µM [2]: 74%

COc1cc(C)c(S(=O)(=O)N(C)CCOCC(=O)NC2CCC(CCc3ccccc3)(N(C)C)CC2)c(C)c1C (centres unmarked) [Compound 24, N-(4-(dimethylamino)-4-phenethylcyclohexyl)-2-(2-(4-methoxy-N,2,3,6-tetramethylphenylsulfonamido)ethoxy)acetamide]
inhibition at 10 µM [1]: 97%
inhibition at 10 µM [2]: 65%

Cc1cc(S(=O)(=O)N2CCCCC2CCC(=O)N(C)CCCC2CCC(Cc3ccccc3)(N3CCCC3)CC2)c(C)cc1Cl (centres unmarked) [Compound 124, N-(3-(4-benzyl-4-(pyrrolidin-1-yl)cyclohexyl)propyl)-3-(1-(4-chloro-2,5-dimethylphenylsulfonyl)piperidin-2-yl)-N-methylpropanamide]
inhibition at 10 µM [1]: 98%
inhibition at 10 µM [2]: 58%

CN1CCN(C2(c3cccc(F)c3)CCN(C(=O)COCC3CCc4ccccc4N3S(=O)(=O)c3ccc(Cl)c(Cl)c3)CC2)CC1 (centres unmarked) [Compound 103, 2-((1-(3,4-dichlorophenylsulfonyl)-1,2,3,4-tetrahydroquinolin-2-yl)methoxy)-1-(4-(3-fluorophenyl)-4-(4-methylpiperazin-1-yl)piperidin-1-yl)ethanone]
inhibition at 10 µM [1]: 73%
inhibition at 10 µM [2]: 82%

COc1cc(C)c(S(=O)(=O)N2CCCCC2COCC(=O)N(C)CC2CCC(c3ccccc3)(N3CCCC3)CC2)c(C)c1 (centres unmarked) [Compound 66, 2-((1-(4-methoxy-2,6-dimethylphenylsulfonyl)piperidin-2-yl)methoxy)-N-methyl-N-((4-phenyl-4-(pyrrolidin-1-yl)cyclohexyl)methyl)acetamide]
inhibition at 10 µM [1]: 102%
inhibition at 10 µM [2]: 100%

COc1cc(C)c(S(=O)(=O)N(C)CCOCC(=O)N(C)CCCC2CCC(Cc3ccccc3)(N3CCCC3)CC2)c(C)c1 (centres unmarked) [Compound 85, N-(3-(4-benzyl-4-(pyrrolidin-1-yl)cyclohexyl)propyl)-2-(2-(4-methoxy-N,2,6-trimethylphenylsulfonamido)ethoxy)-N-methylacetamide]
inhibition at 10 µM [1]: 99%
inhibition at 10 µM [2]: 99%

CN1CCN(C2(c3ccccc3)CCN(C(=O)COCC3CCc4ccccc4N3S(=O)(=O)c3ccc(Cl)c(Cl)c3)CC2)CC1 (centres unmarked) [Compound 115, 2-((1-(3,4-dichlorophenylsulfonyl)-1,2,3,4-tetrahydroquinolin-2-yl)methoxy)-1-(4-(4-methylpiperazin-1-yl)-4-phenylpiperidin-1-yl)ethanone]
inhibition at 10 µM [1]: 71%
inhibition at 10 µM [2]: 72%

CN(C)C1(CCc2ccccc2)CCN(C(=O)CC(NS(=O)(=O)c2ccc3ccccc3c2)c2ccccc2)CC1 (centres unmarked) [Compound 105, N-(3-(4-(dimethylamino)-4-phenethylpiperidin-1-yl)-3-oxo-1-phenylpropyl)naphthalene-2-sulfonamide]
inhibition at 10 µM [1]: 83%
inhibition at 10 µM [2]: 81%

COc1cc(C)c(S(=O)(=O)N(C)CCOCC(=O)N(C)CCCC2CCC(CCc3ccccc3)(N3CCCC3)CC2)c(C)c1 (centres unmarked) [Compound 91, 2-(2-(4-methoxy-N,2,6-trimethylphenylsulfonamido)ethoxy)-N-methyl-N-(3-(4-phenethyl-4-(pyrrolidin-1-yl)cyclohexyl)propyl)acetamide]
inhibition at 10 µM [1]: 98%
inhibition at 10 µM [2]: 97%

COc1cc(C)c(S(=O)(=O)N2CCCC2COCC(=O)NCC2CCC(c3ccccc3)(N3CCOCC3)CC2)c(C)c1 (centres unmarked) [Compound 152, 2-((1-(4-methoxy-2,6-dimethylphenylsulfonyl)pyrrolidin-2-yl)methoxy)-N-((4-morpholino-4-phenylcyclohexyl)methyl)acetamide]
inhibition at 10 µM [1]: 84%
inhibition at 10 µM [2]: 102%
